Tests used:
MDA-MB-231/ATCC = assay: NCI-60 in vitro tumor cell growth inhibition, MDA-MB-231/ATCC (breast cancer); format: cell-based; conditions: Homo sapiens, five concentration levels
Method: (§1) All the synthesized thiazoles 3a–k were evaluated by the National Cancer Institute (Bethesda MD) for cytotoxicity against the NCI-60 cell line panel using standard protocols. Initially, the selected derivatives 3c,d,g,h,j,k were tested at a single dose (10^−5 M) on the full panel of approximately 60 human tumor cell lines derived from 9 human cancer cell types, that have been grouped in disease sub-panels including leukemia, non-small-cell lung, colon, central nervous system (CNS), melanoma, ovarian, renal, prostate and breast cancers (data not shown). Compounds 3d and 3k were further selected for full evaluation at five concentration levels (10^−4–10^−8 M).
(§2) The antitumor activity of compounds 3d and 3k was given by three parameters for each cell line: GI50 (the molar concentration of the compound that inhibits 50% net cell growth), TGI (the molar concentration of the compound leading to total inhibition of net cell growth), and LC50 (the molar concentration of the compound that induces 50% net cell death). The average values of mean graph midpoint (MG_MID) were calculated for each of these parameters.

SF-295 = assay: NCI-60 in vitro tumor cell growth inhibition, SF-295 (CNS cancer); format: cell-based; conditions: Homo sapiens, five concentration levels
Method: as §1, §2

SF-268 = assay: NCI-60 in vitro tumor cell growth inhibition, SF-268 (CNS cancer); format: cell-based; conditions: Homo sapiens, five concentration levels
Method: as §1, §2

MOLT-4 = assay: NCI-60 in vitro tumor cell growth inhibition, MOLT-4 (leukemia); format: cell-based; conditions: Homo sapiens, five concentration levels 10^−4–10^−8 M
Method: as §1, §2

SK-MEL-28 = assay: NCI-60 in vitro tumor cell growth inhibition, SK-MEL-28 (melanoma); format: cell-based; conditions: Homo sapiens, five concentration levels
Method: as §1, §2

SK-MEL-2 = assay: NCI-60 in vitro tumor cell growth inhibition, SK-MEL-2 (melanoma); format: cell-based; conditions: Homo sapiens, five concentration levels
Method: as §1, §2

[1] = system: leukemia cancer subpanel cell lines; assay: NCI-60 screen, leukemia subpanel summary; format: cell-based; conditions: Homo sapiens; range over the leukemia subpanel; read-out: GI50 of all the leukemia subpanel cell lines (range)
Method: as §1, §2

HepG2 cells [2] = assay: Acridine orange/ethidium bromide morphological staining; format: cell-based, human; conditions: HepG2, 24 h, at GI50 concentration
Text: To confirm apoptotic mechanism of cytotoxicity of the nortopsentin analogues, we carried out morphological evaluation of HepG2 cells using AO and EB double staining. […] Moreover, fluorescing orange cells owing to increase of cell permeability to ethidium bromide, cell shrinkage and nuclear fragmentation were also evident as cells in late apoptosis (Figure 3B). Taken together, these findings provided strong evidence that the synthesized nortopsentin analogues induced apoptosis in HepG2 cells.
Acridine orange (AO) stains DNA bright green, allowing visualization of the nuclear chromatin pattern and stains both live and dead cells. Ethidium bromide (EB) stains DNA orange but is excluded by viable cells. Dual staining allows separate enumeration of populations of viable non-apoptotic, viable (early) apoptotic, nonviable (late) apoptotic, and necrotic cells. Live cells appear uniformly green. […] Late apoptotic cells incorporate EB and therefore stain orange, but, in contrast to necrotic cells, the late apoptotic cells show condensed and often fragmented nuclei. Necrotic cells stain orange, but have a nuclear morphology resembling that of viable cells, with no condensed chromatin. Briefly, after HepG2 cells were treated with 3d or 3k compounds for 24 h, the medium was discarded. […]

ACHN = assay: NCI-60 in vitro tumor cell growth inhibition, ACHN (renal cancer); format: cell-based; conditions: Homo sapiens, five concentration levels
Method: as §1, §2

SR = assay: NCI-60 in vitro tumor cell growth inhibition, SR (leukemia); format: cell-based; conditions: Homo sapiens, five concentration levels 10^−4–10^−8 M
Method: as §1, §2

A549/ATCC = assay: NCI-60 in vitro tumor cell growth inhibition, A549/ATCC (non-small cell lung cancer); format: cell-based; conditions: Homo sapiens, five concentration levels
Method: as §1, §2

OVCAR-4 = assay: NCI-60 in vitro tumor cell growth inhibition, OVCAR-4 (ovarian cancer); format: cell-based; conditions: Homo sapiens, five concentration levels
Method: as §1, §2

U251 = assay: NCI-60 in vitro tumor cell growth inhibition, U251 (CNS cancer); format: cell-based; conditions: Homo sapiens, U-251, five concentration levels
Method: as §1, §2

HL-60(TB) = assay: NCI-60 in vitro tumor cell growth inhibition, HL-60(TB) (leukemia); format: cell-based; conditions: Homo sapiens, five concentration levels 10^−4–10^−8 M
Method: as §1, §2

HCT-15 = assay: NCI-60 in vitro tumor cell growth inhibition, HCT-15 (colon cancer); format: cell-based; conditions: Homo sapiens, five concentration levels
Method: as §1, §2

786-0 = assay: NCI-60 in vitro tumor cell growth inhibition, 786-0 (renal cancer); format: cell-based; conditions: Homo sapiens, five concentration levels
Method: as §1, §2

SK-OV-3 = assay: NCI-60 in vitro tumor cell growth inhibition, SK-OV-3 (ovarian cancer); format: cell-based; conditions: Homo sapiens, five concentration levels
Method: as §1, §2

EKVK = assay: NCI-60 in vitro tumor cell growth inhibition, EKVK (non-small cell lung cancer); format: cell-based; conditions: Homo sapiens, five concentration levels
Method: as §1, §2

MCF7 = assay: NCI-60 in vitro tumor cell growth inhibition, MCF7 (breast cancer); format: cell-based; conditions: Homo sapiens, five concentration levels
Method: as §1, §2

UACC-62 = assay: NCI-60 in vitro tumor cell growth inhibition, UACC-62 (melanoma); format: cell-based; conditions: Homo sapiens, five concentration levels
Method: as §1, §2

CAKI-1 = assay: NCI-60 in vitro tumor cell growth inhibition, CAKI-1 (renal cancer); format: cell-based; conditions: Homo sapiens, five concentration levels
Method: as §1, §2

MALME-3M = assay: NCI-60 in vitro tumor cell growth inhibition, MALME-3M (melanoma); format: cell-based; conditions: Homo sapiens, five concentration levels
Method: as §1, §2

MDA-MB-435 = assay: NCI-60 in vitro tumor cell growth inhibition, MDA-MB-435 (melanoma); format: cell-based; conditions: Homo sapiens, five concentration levels
Method: as §1, §2

HS 578T = assay: NCI-60 in vitro tumor cell growth inhibition, HS 578T (breast cancer); format: cell-based; conditions: Homo sapiens, five concentration levels
Method: as §1, §2

NCI-H226 = assay: NCI-60 in vitro tumor cell growth inhibition, NCI-H226 (non-small cell lung cancer); format: cell-based; conditions: Homo sapiens, five concentration levels
Method: as §1, §2

RPMI-8226 = assay: NCI-60 in vitro tumor cell growth inhibition, RPMI-8226 (leukemia); format: cell-based; conditions: Homo sapiens, five concentration levels 10^−4–10^−8 M
Method: as §1, §2

SW-620 = assay: NCI-60 in vitro tumor cell growth inhibition, SW-620 (colon cancer); format: cell-based; conditions: Homo sapiens, five concentration levels
Method: as §1, §2

NCI-H23 = assay: NCI-60 in vitro tumor cell growth inhibition, NCI-H23 (non-small cell lung cancer); format: cell-based; conditions: Homo sapiens, five concentration levels
Method: as §1, §2

HepG2 cells [3] = assay: Intracellular reactive oxygen species, DCFH flow cytometry; format: cell-based, human; conditions: HepG2, 24 h treatment
Method: Involvement of mitochondria in apoptosis induced in HepG2 cells by the synthesized nortopsentin analogues, was assessed. Loss of mitochondrial trans-membrane potential was indicated by decreased mitochondrial 3,30-dihexyloxacarbocyanine iodide-red fluorescence (Figure 4A).
ROS level was monitored by measuring fluorescence changes that resulted from intracellular oxidation of 2′,7′-dichlorofluorescin diacetate (DCFH). DCFH, at […] final concentration, was added to the cell medium 30 min before the end of the treatment. The cells were collected by centrifugation for 5 min at 2000 rpm at 4 °C, washed, suspended in PBS and immediately subjected to fluorescence-activated cell sorting analysis. At least 1 × 10^4 cells were analyzed for each sample.

NCI/ADR-RES = assay: NCI-60 in vitro tumor cell growth inhibition, NCI/ADR-RES (ovarian cancer); format: cell-based; conditions: Homo sapiens, five concentration levels
Method: as §1, §2

RXF393 = assay: NCI-60 in vitro tumor cell growth inhibition, RXF393 (renal cancer); format: cell-based; conditions: Homo sapiens, RXF 393, five concentration levels
Method: as §1, §2

HOP-92 = assay: NCI-60 in vitro tumor cell growth inhibition, HOP-92 (non-small cell lung cancer); format: cell-based; conditions: Homo sapiens, five concentration levels
Method: as §1, §2

MDA-MB-468 = assay: NCI-60 in vitro tumor cell growth inhibition, MDA-MB-468 (breast cancer); format: cell-based; conditions: Homo sapiens, five concentration levels
Method: as §1, §2

Work on `Cn1cc(-c2csc(-c3cn(C)c4ncccc34)n2)c2ccccc21` [Compound 3d, 1-Methyl-3-[4-(1-methyl-1H-indol-3-yl)-1,3-thiazol-2-yl]-1H-pyrrolo[2,3-b]pyridine] yielded a GI50 (MDA-MB-231/ATCC) of 2820 nM, a GI50 (SF-295) of 240 nM and a GI50 (SF-268) of 2440 nM. For the same compound, the GI50 (MOLT-4) was 670 nM, the GI50 (SK-MEL-28) was 1200 nM and the GI50 (SK-MEL-2) was 580 nM. The GI50 [1] was 60 to 670 nM, the “morphological evaluation, AO and EB double staining” value (HepG2 cells [2]) was “chromatin condensation and nuclear fragmentation” and the GI50 (ACHN) was 720 nM. For the same compound, the GI50 (SR) was 60 nM, the GI50 (A549/ATCC) was 560 nM and the GI50 (OVCAR-4) was 7220 nM. It also gave a GI50 (U251) of 410 nM, a GI50 (HL-60(TB)) of 290 nM and a GI50 (HCT-15) of 170 nM. For the same compound, the GI50 (786-0) was 970 nM, the GI50 (SK-OV-3) was 570 nM and the GI50 (EKVK) was 910 nM. The GI50 (MCF7) was 330 nM, the GI50 (UACC-62) was 300 nM and the GI50 (CAKI-1) was 380 nM. For the same compound, the GI50 (MALME-3M) was 1040 nM, the GI50 (MDA-MB-435) was 30 nM and the GI50 (HS 578T) was 590 nM. It also gave a GI50 (NCI-H226) of 740 nM, a GI50 (RPMI-8226) of 450 nM and a GI50 (SW-620) of 220 nM. For the same compound, the GI50 (NCI-H23) was 720 nM, the “levels of intracellular ROS” value (HepG2 cells [3]) was “significantly higher than cell control” and the GI50 (NCI/ADR-RES) was 90 nM. The GI50 (RXF393) was 330 nM, the GI50 (HOP-92) was 350 nM and the GI50 (MDA-MB-468) was 280 nM.
For `Cn1cc(-c2nc(-c3c[nH]c4ccccc34)cs2)c2cccnc21` [Compound 3k, 3-[4-(1H-Indol-3-yl)-1,3-thiazol-2-yl]-1-methyl-1H-pyrrolo[2,3-b]pyridine], the GI50 (MDA-MB-231/ATCC) was 1290 nM, the GI50 (SF-295) was 310 nM and the GI50 (SF-268) was 940 nM. It also gave a GI50 (MOLT-4) of 660 nM, a GI50 (SK-MEL-28) of 760 nM and a GI50 (SK-MEL-2) of 410 nM. The GI50 [1] was 120 to 660 nM, the “morphological evaluation, AO and EB double staining” value (HepG2 cells [2]) was “chromatin condensation and nuclear fragmentation” and the GI50 (ACHN) was 510 nM. For the same compound, the GI50 (SR) was 140 nM, the GI50 (A549/ATCC) was 710 nM and the GI50 (OVCAR-4) was 520 nM. It also gave a GI50 (U251) of 430 nM, a GI50 (HL-60(TB)) of 320 nM and a GI50 (HCT-15) of 290 nM. The GI50 (786-0) was 720 nM, the GI50 (SK-OV-3) was 520 nM and the GI50 (EKVK) was 910 nM. For the same compound, the GI50 (MCF7) was 370 nM, the GI50 (UACC-62) was 420 nM and the GI50 (CAKI-1) was 440 nM. The GI50 (MALME-3M) was 740 nM, the GI50 (MDA-MB-435) was 40 nM and the GI50 (HS 578T) was 660 nM. It also gave a GI50 (NCI-H226) of 650 nM, a GI50 (RPMI-8226) of 650 nM and a GI50 (SW-620) of 300 nM. For the same compound, the GI50 (NCI-H23) was 670 nM, the “levels of intracellular ROS” value (HepG2 cells [3]) was “significantly higher than cell control” and the GI50 (NCI/ADR-RES) was 150 nM. It also gave a GI50 (RXF393) of 520 nM, a GI50 (HOP-92) of 310 nM and a GI50 (MDA-MB-468) of 230 nM.
